Assay results from the CheMixHub ionic liquid set.

Assay: xn = mol fraction of the nth substance listed

CCCCn1cc[n+](C)c1C.O=S(=O)([N-]S(=O)(=O)C(F)(F)F)C(F)(F)F + CC1COC(=O)O1
101.3 kPa
Settings	viscosity [mPa·s]
288.15 K, x1 = 0.6989	76.5
293.15 K, x1 = 0.0902	4.602
293.15 K, x1 = 0.6034	43.21
298.15 K, x1 = 0.4039	16.99
303.15 K, x1 = 0.193	5.92
303.15 K, x1 = 0.4996	20.52
303.15 K, x1 = 0.8107	50
303.15 K, x1 = 1	78.6
308.15 K, x1 = 0.193	5.23
308.15 K, x1 = 0.8107	40.47
313.15 K, x1 = 0.0902	2.96
313.15 K, x1 = 0.4039	10.52
313.15 K, x1 = 1	50.1
318.15 K, x1 = 0.193	4.177
318.15 K, x1 = 0.2934	6.16
318.15 K, x1 = 0.4996	13.02
318.15 K, x1 = 0.8107	27.72
318.15 K, x1 = 1	41.04
328.15 K, x1 = 0.0902	2.263
333.15 K, x1 = 0.8107	17.54
333.15 K, x1 = 1	24.25
338.15 K, x1 = 0.2934	4.026
338.15 K, x1 = 0.4996	7.4
343.15 K, x1 = 0.4996	6.47
343.15 K, x1 = 0.6034	8.56

OCCO + CCOS(=O)(=O)[O-].CC[n+]1ccn(C)c1
100 kPa, x1 = 1
Settings	viscosity [mPa·s]
298.15 K	16.8
303.15 K	13.8

O=C([O-])CC(O)(CC(=O)[O-])C(=O)[O-].[K+].[K+].[K+] + CCOS(=O)(=O)[O-].CC[n+]1ccn(C)c1 + O
viscosity [mPa·s], 101.3 kPa
Settings	293.15 K	298.15 K	303.15 K	308.15 K	313.15 K
x1 = 0.0001822, x2 = 0.001795	1.082	0.969	0.854	0.76	0.688
x1 = 0.0001842, x2 = 0.002697	1.117	0.997	0.886	0.798	0.719
x1 = 0.0001964, x2 = 0	1.012	0.9	0.806	0.73	0.654
x1 = 0.0002632, x2 = 0.003588	1.149	1.029	0.912	0.824	0.74
x1 = 0.0005421, x2 = 0	1.019	0.907	0.813	0.737	0.661
x1 = 0.0005539, x2 = 0.001794	1.091	0.978	0.863	0.769	0.697
x1 = 0.0005561, x2 = 0.002696	1.127	1.007	0.896	0.808	0.729
x1 = 0.0005675, x2 = 0.003587	1.157	1.037	0.921	0.832	0.749
x1 = 0.0008894, x2 = 0	1.026	0.914	0.82	0.744	0.668
x1 = 0.0009179, x2 = 0.001794	1.099	0.986	0.871	0.776	0.704
x1 = 0.0009314, x2 = 0.002695	1.135	1.015	0.904	0.816	0.737
x1 = 0.0009355, x2 = 0.003586	1.166	1.046	0.929	0.841	0.757
x1 = 0.00126, x2 = 0	1.032	0.92	0.826	0.75	0.674
x1 = 0.001287, x2 = 0.001793	1.106	0.993	0.878	0.783	0.712
x1 = 0.001299, x2 = 0.002694	1.143	1.023	0.912	0.824	0.745
x1 = 0.001316, x2 = 0.003585	1.174	1.054	0.937	0.849	0.765
x1 = 0.001616, x2 = 0	1.038	0.926	0.832	0.756	0.68
x1 = 0.001647, x2 = 0.001792	1.113	1	0.884	0.79	0.719
x1 = 0.001665, x2 = 0.002693	1.15	1.03	0.92	0.831	0.753
x1 = 0.001686, x2 = 0.003583	1.181	1.061	0.944	0.856	0.773
x1 = 0.001985, x2 = 0	1.044	0.932	0.838	0.762	0.686
x1 = 0.002026, x2 = 0.002692	1.158	1.038	0.926	0.839	0.759
x1 = 0.002032, x2 = 0.001792	1.12	1.007	0.892	0.798	0.725
x1 = 0.002072, x2 = 0.003582	1.19	1.07	0.954	0.865	0.78

CCC(=O)CC + CCCC[n+]1ccn(C)c1.F[P-](F)(F)(F)(F)F
298.15 K, 101.3 kPa
Settings	viscosity [mPa·s]
x1 = 0.1927	81.4
x1 = 0.3014	42.7
x1 = 0.5009	13.36
x1 = 0.652	5.36

OCCO + CCCC[n+]1ccn(C)c1.O=S(=O)([N-]S(=O)(=O)C(F)(F)F)C(F)(F)F
100 kPa
Settings	viscosity [mPa·s]
293.15 K, x2 = 0.2002	34.4
293.15 K, x2 = 0.4015	41.6
298.15 K, x2 = 0.2002	27.2
308.15 K, x2 = 0.2997	18.6
308.15 K, x2 = 0.7003	21.8
313.15 K, x2 = 0.2997	15.6
318.15 K, x2 = 0.2997	13.3
318.15 K, x2 = 0.7003	15.6
323.15 K, x2 = 0.2997	11.5
323.15 K, x2 = 0.7993	14.8
323.15 K, x2 = 0.9	17
328.15 K, x2 = 0.4015	10.4
328.15 K, x2 = 0.6007	11.3
328.15 K, x2 = 0.9	14.7
333.15 K, x2 = 0.2002	8.11
333.15 K, x2 = 0.7993	11.3
338.15 K, x2 = 0.7993	10
